Experimental data as given in US9801889B2, “Bicyclic heterocycles as FGFR4 inhibitors” (Incyte Corporation, priority 2015, dated 2017).

Legend:
FGFR2 = FGFR2 (Homo sapiens (Human), UniProt P21802); experiment: FGFR Enzymatic Assay (FRET peptide phosphorylation), FGFR2; settings: IC50 ratio showing FGFR4 selectivity; pre-incubated for 4 hours
From the text: (§1) The enzymes were purchased from Millipore or Invitrogen.
(§2) GraphPad prism3 was used to analyze the data. The IC50 values were derived by fitting the data to the equation for a sigmoidal dose-response with a variable slope. Y=Bottom+(Top-Bottom)/(1+10^((LogIC50-X)*HillSlope)) where X is the logarithm of concentration and Y is the response.

FGFR1 = FGFR1 (Homo sapiens (Human), UniProt P11362); experiment: FGFR Enzymatic Assay (FRET peptide phosphorylation), FGFR1; settings: IC50 ratio showing FGFR4 selectivity; pre-incubated for 4 hours
Sequence of FGFR1 (P11362 22-822): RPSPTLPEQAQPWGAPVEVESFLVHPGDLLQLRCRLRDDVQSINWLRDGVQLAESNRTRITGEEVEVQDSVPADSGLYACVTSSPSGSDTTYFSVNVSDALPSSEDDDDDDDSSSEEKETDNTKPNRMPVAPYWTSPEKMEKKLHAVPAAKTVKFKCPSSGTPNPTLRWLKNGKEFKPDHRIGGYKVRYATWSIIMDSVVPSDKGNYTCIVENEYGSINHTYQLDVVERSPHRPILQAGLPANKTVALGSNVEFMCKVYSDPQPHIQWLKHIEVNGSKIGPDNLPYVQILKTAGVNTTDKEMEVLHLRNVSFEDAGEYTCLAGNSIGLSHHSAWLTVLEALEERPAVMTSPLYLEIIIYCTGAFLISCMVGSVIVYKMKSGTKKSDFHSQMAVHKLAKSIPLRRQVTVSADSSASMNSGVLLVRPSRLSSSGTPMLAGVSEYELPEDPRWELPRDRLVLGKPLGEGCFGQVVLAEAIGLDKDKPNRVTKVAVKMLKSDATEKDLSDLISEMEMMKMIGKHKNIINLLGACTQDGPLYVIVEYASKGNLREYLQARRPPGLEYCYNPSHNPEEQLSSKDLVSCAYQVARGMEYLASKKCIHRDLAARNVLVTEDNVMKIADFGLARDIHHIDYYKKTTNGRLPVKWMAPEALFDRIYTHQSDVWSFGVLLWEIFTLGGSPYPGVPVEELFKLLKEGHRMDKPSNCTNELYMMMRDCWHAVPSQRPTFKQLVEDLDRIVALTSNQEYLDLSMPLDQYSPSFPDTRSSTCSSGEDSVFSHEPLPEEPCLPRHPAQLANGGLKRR
From the text: as §1, §2

FGFR4 = FGFR4 (Homo sapiens (Human), UniProt P22455); experiment: FGFR Enzymatic Assay (FRET peptide phosphorylation), FGFR4
Sequence of FGFR4 (P22455 22-802): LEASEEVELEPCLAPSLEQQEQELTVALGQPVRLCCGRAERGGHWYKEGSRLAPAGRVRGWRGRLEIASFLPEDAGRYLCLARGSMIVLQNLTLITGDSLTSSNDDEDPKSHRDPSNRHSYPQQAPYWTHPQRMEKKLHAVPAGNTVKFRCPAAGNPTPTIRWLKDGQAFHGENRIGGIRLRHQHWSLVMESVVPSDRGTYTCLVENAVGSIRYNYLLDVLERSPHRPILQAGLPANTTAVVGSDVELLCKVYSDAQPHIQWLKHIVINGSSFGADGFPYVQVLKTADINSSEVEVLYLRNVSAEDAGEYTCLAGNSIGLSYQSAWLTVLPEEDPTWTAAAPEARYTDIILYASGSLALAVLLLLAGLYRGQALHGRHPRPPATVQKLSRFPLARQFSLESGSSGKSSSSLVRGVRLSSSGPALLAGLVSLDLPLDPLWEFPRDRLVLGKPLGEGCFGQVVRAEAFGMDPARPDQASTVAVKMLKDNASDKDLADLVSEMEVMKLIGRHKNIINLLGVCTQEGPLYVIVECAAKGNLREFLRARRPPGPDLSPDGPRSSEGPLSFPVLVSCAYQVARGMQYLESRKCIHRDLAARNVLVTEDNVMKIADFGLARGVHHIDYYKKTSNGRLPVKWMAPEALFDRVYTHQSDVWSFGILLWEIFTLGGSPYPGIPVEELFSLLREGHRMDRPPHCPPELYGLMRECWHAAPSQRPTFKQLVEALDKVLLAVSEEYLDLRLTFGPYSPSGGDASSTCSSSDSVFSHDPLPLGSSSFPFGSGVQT
From the text: as §1, §2

FGFR3 = FGFR3 (Homo sapiens (Human), UniProt P22607); experiment: FGFR Enzymatic Assay (FRET peptide phosphorylation), FGFR3; settings: IC50 ratio showing FGFR4 selectivity; pre-incubated for 4 hours
Sequence of FGFR3 (P22607 23-806): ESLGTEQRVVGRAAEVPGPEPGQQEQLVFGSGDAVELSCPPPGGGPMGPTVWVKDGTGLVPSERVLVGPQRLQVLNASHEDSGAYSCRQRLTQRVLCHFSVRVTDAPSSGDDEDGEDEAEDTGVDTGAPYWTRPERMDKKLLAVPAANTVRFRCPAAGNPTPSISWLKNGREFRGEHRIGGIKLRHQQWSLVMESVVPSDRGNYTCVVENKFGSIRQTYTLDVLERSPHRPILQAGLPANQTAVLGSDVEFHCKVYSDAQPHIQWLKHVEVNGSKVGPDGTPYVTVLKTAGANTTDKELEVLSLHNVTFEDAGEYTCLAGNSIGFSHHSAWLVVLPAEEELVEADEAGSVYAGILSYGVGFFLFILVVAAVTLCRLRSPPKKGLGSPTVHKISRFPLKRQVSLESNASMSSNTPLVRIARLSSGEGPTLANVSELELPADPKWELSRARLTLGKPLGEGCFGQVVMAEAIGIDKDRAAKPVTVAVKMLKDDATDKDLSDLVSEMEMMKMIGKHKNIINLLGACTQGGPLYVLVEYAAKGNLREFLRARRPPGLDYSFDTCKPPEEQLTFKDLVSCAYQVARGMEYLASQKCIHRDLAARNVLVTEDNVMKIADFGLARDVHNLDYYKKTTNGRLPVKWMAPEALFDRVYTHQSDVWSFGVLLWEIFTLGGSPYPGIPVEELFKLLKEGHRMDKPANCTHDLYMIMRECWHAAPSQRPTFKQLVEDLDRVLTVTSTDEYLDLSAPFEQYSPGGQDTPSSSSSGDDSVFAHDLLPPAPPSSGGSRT
From the text: as §1, §2

Sequence of FGFR2 (P21802 22-821): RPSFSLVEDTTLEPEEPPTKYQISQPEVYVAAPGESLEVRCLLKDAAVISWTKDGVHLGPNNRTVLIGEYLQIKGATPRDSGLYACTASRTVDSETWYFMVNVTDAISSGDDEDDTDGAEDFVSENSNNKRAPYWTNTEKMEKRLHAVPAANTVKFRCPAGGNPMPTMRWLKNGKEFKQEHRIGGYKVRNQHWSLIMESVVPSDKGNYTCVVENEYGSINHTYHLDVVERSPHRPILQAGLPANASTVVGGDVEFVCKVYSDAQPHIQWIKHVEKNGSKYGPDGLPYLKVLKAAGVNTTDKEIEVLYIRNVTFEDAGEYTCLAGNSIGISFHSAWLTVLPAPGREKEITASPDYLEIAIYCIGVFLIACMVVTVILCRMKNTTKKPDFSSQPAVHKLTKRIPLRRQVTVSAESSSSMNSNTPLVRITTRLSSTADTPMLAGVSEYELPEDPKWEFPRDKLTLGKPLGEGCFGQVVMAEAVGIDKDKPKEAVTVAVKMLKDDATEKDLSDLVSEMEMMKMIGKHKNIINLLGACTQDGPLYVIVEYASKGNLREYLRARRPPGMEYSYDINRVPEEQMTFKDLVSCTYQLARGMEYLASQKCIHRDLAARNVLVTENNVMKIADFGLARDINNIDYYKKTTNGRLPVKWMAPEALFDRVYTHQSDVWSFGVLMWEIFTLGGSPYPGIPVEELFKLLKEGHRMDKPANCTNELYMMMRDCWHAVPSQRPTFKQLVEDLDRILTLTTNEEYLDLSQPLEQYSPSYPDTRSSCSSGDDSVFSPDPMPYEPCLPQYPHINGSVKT

Row | SMILES | FGFR2/FGFR4 (FGFR2) | FGFR1/FGFR4 (FGFR1) | FGFR3/FGFR4 (FGFR3) | IC50 (FGFR4) [nM]
1 | C=CC(=O)Nc1cnn(CC(=O)NC)c1-c1cc2c(cn1)CN(c1c(F)c(OC)cc(OC)c1F)C(=O)C21CC1 [Example 20, N-(5-(2′-(2,6-difluoro-3,5-dimethoxyphenyl)-3′-oxo-2′,3′-dihydro-1′H-spiro[cyclopropane-1,4′-[2,7]naphthyridine]-6′-yl)-1-(2-(methylamino)-2-oxoethyl)-1H-pyrazol-4-yl)acrylamide] | >100 | >50 | >100 | 10 to 30
2 | C=CC(=O)Nc1cnn(C[C@@H]2CCOC2)c1-c1cc2c(cn1)CN(c1c(F)c(OC)cc(OC)c1F)C(=O)C21CC1 [Example 28, (S)-N-(5-(2′-(2,6-difluoro-3,5-dimethoxyphenyl)-3′-oxo-2′,3′-dihydro-1′H-spiro[cyclopropane-1,4′-[2,7]naphthyridine]-6′-yl)-1-((tetrahydrofuran-3-yl)methyl)-1H-pyrazol-4-yl)acrylamide] | >100 | >100 | >100 | –
3 | C=CC(=O)Nc1cnn(C[C@H]2CCCO2)c1-c1cc2c(cn1)CN(c1c(F)c(OC)cc(OC)c1F)C(=O)C21CC1 [Example 30] | >100 | >100 | >100 | –
4 | C=CC(=O)Nc1cnn(C[C@@H]2CCCO2)c1-c1cc2c(cn1)CN(c1c(F)c(OC)cc(OC)c1F)C(=O)C21CC1 [Example 31, (S)-N-(5-(2′-(2,6-difluoro-3,5-dimethoxyphenyl)-3′-oxo-2′,3′-dihydro-1′H-spiro[cyclopropane-1,4′-[2,7]naphthyridine]-6′-yl)-1-((tetrahydrofuran-2-yl)methyl)-1H-pyrazol-4-yl)acrylamide] | >100 | >100 | >100 | –
5 | C=CC(=O)Nc1cn(CCOC(F)(F)F)nc1-c1cc2c(cn1)CN(c1c(F)c(OC)cc(OC)c1F)C(=O)C21CC1 [Example 33, N-(3-(2′-(2,6-difluoro-3,5-dimethoxyphenyl)-3′-oxo-2′,3′-dihydro-1′H-spiro[cyclopropane-1,4′-[2,7]naphthyridine]-6′-yl)-1-(2-(trifluoromethoxy)ethyl)-1H-pyrazol-4-yl)acrylamide] | >100 | >100 | >100 | –
6 | C=CC(=O)Nc1cn(CCN2CCOCC2)nc1-c1cc2c(cn1)CN(c1c(F)c(OC)cc(OC)c1F)C(=O)C21CC1 [Example 34, N-(3-(2′-(2,6-difluoro-3,5-dimethoxyphenyl)-3′-oxo-2′,3′-dihydro-1′H-spiro[cyclopropane-1,4′-[2,7]naphthyridine]-6′-yl)-1-(2-morpholinoethyl)-1H-pyrazol-4-yl)acrylamide] | >100 | >100 | >100 | –
7 | C=CC(=O)Nc1cn(CC2CCOCC2)nc1-c1cc2c(cn1)CN(c1c(F)c(OC)cc(OC)c1F)C(=O)C21CC1 [Example 35, N-(3-(2′-(2,6-difluoro-3,5-dimethoxyphenyl)-3′-oxo-2′,3′-dihydro-1′H-spiro[cyclopropane-1,4′-[2,7]naphthyridine]-6′-yl)-1-((tetrahydro-2H-pyran-4-yl)methyl)-1H-pyrazol-4-yl)acrylamide] | >100 | >100 | >100 | –

Further lines, with some results ahead:

Row | FGFR2/FGFR4 (FGFR2) | FGFR1/FGFR4 (FGFR1) | FGFR3/FGFR4 (FGFR3) | SMILES | IC50 (FGFR4) [nM]
8 | >50 | >100 | >100 | C=CC(=O)Nc1cnn(Cc2ccnn2C)c1-c1cc2c(cn1)CN(c1c(F)c(OC)cc(OC)c1F)C(=O)C21CC1 [Example 26, N-(5-(2′-(2,6-difluoro-3,5-dimethoxyphenyl)-3′-oxo-2′,3′-dihydro-1′H-spiro[cyclopropane-1,4′-[2,7]naphthyridine]-6′-yl)-1-((1-methyl-1H-pyrazol-5-yl)methyl)-1H-pyrazol-4-yl)acrylamide] | –
9 | >100 | >100 | >100 | C=CC(=O)Nc1cnn(Cc2cnn(C)c2)c1-c1cc2c(cn1)CN(c1c(F)c(OC)cc(OC)c1F)C(=O)C21CC1 [Example 27, N-(5-(2′-(2,6-difluoro-3,5-dimethoxyphenyl)-3′-oxo-2′,3′-dihydro-1′H-spiro[cyclopropane-1,4′-[2,7]naphthyridine]-6′-yl)-1-((1-methyl-1H-pyrazol-4-yl)methyl)-1H-pyrazol-4-yl)acrylamide] | –
10 | >100 | >100 | >100 | C=CC(=O)Nc1cn(CCOC)nc1-c1cc2c(cn1)CN(c1c(F)c(OC)cc(OC)c1F)C(=O)C21CC1 [Example 32, N-(3-(2′-(2,6-difluoro-3,5-dimethoxyphenyl)-3′-oxo-2′,3′-dihydro-1′H-spiro[cyclopropane-1,4′-[2,7]naphthyridine]-6′-yl)-1-(2-methoxyethyl)-1H-pyrazol-4-yl)acrylamide] | –
11 | >100 | >100 | >100 | C=CC(=O)Nc1cn(CC(=O)N(C)C)nc1-c1cc2c(cn1)CN(c1c(F)c(OC)cc(OC)c1F)C(=O)C21CC1 [Example 36, N-(3-(2′-(2,6-difluoro-3,5-dimethoxyphenyl)-3′-oxo-2′,3′-dihydro-1′H-spiro[cyclopropane-1,4′-[2,7]naphthyridine]-6′-yl)-1-(2-(dimethylamino)-2-oxoethyl)-1H-pyrazol-4-yl)acrylamide] | –
12 | >100 | >100 | >100 | C=CC(=O)Nc1ccc(C)c(-c2ncc3c(n2)C2(CC2)C(=O)N(c2c(F)c(OC)cc(OC)c2F)C3)c1 [Example 37, N-(3-(6′-(2,6-difluoro-3,5-dimethoxyphenyl)-7′-oxo-6′,7′-dihydro-5′H-spiro[cyclopropane-1,8′-pyrido[4,3-d]pyrimidine]-2′-yl)-4-methylphenyl)acrylamide] | –
